Assay results reported in patent US20170246144A1, “METHOD OF PREVENTING OR TREATING SPINOCEREBELLAR ATAXIA BY ADMINISTRATING SILIBININ” (National Taiwan Normal University, priority 2016, published 2017).

How the values were obtained:
Type in all cases: cell-based, Human
SH-SY5Y cells [1] = test: JC-1 flow cytometry of mitochondria membrane potential (MMP)
Procedure: FIGS. 7A and 7B show the effects of SB on mitochondria membrane potential (MMP) in SH-SY5Y cells treated with MSG measured by JC-1 staining with a flow cytometry, wherein the control group (Ctrl) was untreated SH-SY5Y cells or the cells were treated with 100 mM MSG, 100 mM MSG+15 μM SB, 100 mM MSG+10 μM MK801 (MK) or 5 μM CCCP (disruptor of electron transport chain) for 12 hours. […] The results were shown as mean±SEM, n=3, *p<0.05, comparing to the MSG treatment group.
In the present embodiment, flow cytometry analysis was used to investigate whether silibinin can prevent the reduction of mitochondria membrane potential induced by glutamate in SH-SY5Y cells.
SH-SY5Y cells were seeded in 6 centimeter dish (1×10^6 cells/plate) for 24 hours, and then were pre-treated with 15 μM silibinin or 10 μM MK-801 for 1 hour followed by the treatment of 100 mM MSG for 12 hours. 5 μM carbonyl cyanide m-chlorophenylhydrazone (CCCP) was added to the positive control group to induce the depolarization of mitochondria membrane potential.
The treated cells were washed, centrifuged and collected, followed by PBS wash and JC-1 dye staining for 30 minutes. The stained cells were re-suspended using phosphate buffer solution and analyzed by a flow cytometry to obtain a 2-dimensional scatter plot. 10,000 cells were recorded for each experiment.

SH-SY5Y cells [2] = test: Chemiluminescence (luminol) analysis of ROS induced by MSG
Procedure: FIG. 6A: The ROS productions in 1×10^6 SH-SY5Y cells were measured by chemiluminescence (CL) analysis and luminol measurement, wherein the control group (Ctrl) was untreated SH-SY5Y cells or the cells were treated with 100 mM MSG, 100 mM MSG+15 μM SB or 100 mM MSG+10 μM MK801 (MK) for 24 hours.
It is known that the cyto-toxicity induced by glutamate is associated with mitochondria dysfunction and the increased production of ROS in neuron. In this embodiment, chemiluminescence analysis was performed to measure the level of ROS in order to understand whether silibinin can inhibit the accumulation of ROS associated with glutamatergic excitotoxicity. […] The emission spectrum was blue light which can be monitored by chemiluminescence detector.
SH-SY5Y cells were seeded in dish (1×10^6 cells/plate) for 24 hours, and then were pre-treated with 15 μM silibinin or 10 μM MK-801 for 1 hour followed by the treatment of 100 mM glutamate for 24 hours. The cells were then washed and suspended in 60 μL RIPA on ice bath followed by stirring and centrifugation at 13,000 rpm for […] at 4° C. The obtained protein sample (200 μL, 20 μg) was mixed with 0.5 mL of 0.2 mM luminol (Sigma). After 5 minutes, chemiluminescence analysis system (CLD-110, Tohoku Electronic Inc. Co. Japan) was performed to determine its chemiluminescence.

SH-SY5Y cells [3] = test: Annexin V-FITC/PI flow cytometry, apoptosis induced by MSG; conditions: 10 μM, 100 mM MSG, 24 hours
Procedure: 1×10^6 SH-SY5Y cells were treated with 100 mM MSG and 15 μM SB or 10 μM MK801 (MK) for 24 hours. Cells were stained with Annexin-V/PI and the apoptosis was measured with a flow cytometry.
In order to detect the effects of silibinin in inhibiting the apoptosis induced by glutamate in SH-SY5Y cells. The cells were measured by flow cytometry using Annexin V-FITC/propidium iodide (PI) double-labeling method.
SH-SY5Y cells were seeded in dish and were treated with 100 mM MSG in combination of 15 μM silibinin or 10 μM MK801 for 24 hours. The cells were then trypsinized and collected by centrifugation at 2,000 rpm for […] followed by double-staining with Annexin V-FITC and PI. Stained cells were analyzed with a flow cytometry (FACS Sorter, Becton, Dickinson and Company). 10,000 cells were recorded in each experiment.

Compound | MMP retained (SH-SY5Y cells [1]; 5 μM CCCP, positive control, no MSG) [%] | extracellular ROS (SH-SY5Y cells [2]; 10 μM, 100 mM MSG, 24 hours) | inhibition at 10 µM (SH-SY5Y cells [2]; Homo sapiens, SH-SY5Y, 24 h, read-out: inhibition of intracellular ROS) [%] | MMP compared to Ctrl (SH-SY5Y cells [1]; 10 μM + 100 mM MSG) [%] | apoptosis (apoptotic cells) (SH-SY5Y cells [3]) [%]
N#CC(C#N)=NNc1cccc(Cl)c1 [CCCP, carbonyl cyanide m-chlorophenylhydrazone] | 18±10 | – | – | – | –
C[C@]12N[C@H](Cc3ccccc31)c1ccccc12 [MK801] | – | unchanged | 80 | 90±5 | 9.73
